Measured values taken from US7605172B2, “Thiazolo-naphthyl acids” (Wyeth, priority 2004, dated 2009).

Key:
[1] = target: T1, recombinant human plasminogen activator inhibitor-1 (PAI-1) (Homo sapiens, UniProt P05121); assay: Primary screen for the PAI-1 inhibition; type: biochemical; conditions: for inhibition at 10 µM: 10 μM test compound; for inhibition at 25 µM: 25 μM test compound
T1 construct: purchased Molecular Innovations, Royal Oak, Mich
Experimental: Test compounds are dissolved in DMSO at a final concentration of 10 mM, then diluted 100× in physiologic buffer. The inhibitory assay is initiated by the addition of the test compound (1-100 μM final concentration, maximun DMSO concentration of 0.2%) in a pH 6.6 buffer containing 140 nM recombinant human plasminogen activator inhibitor-1 (PAI-1; Molecular Innovations, Royal Oak, Mich.). Following a 1 hour incubation at room temperature, 70 nM of recombinant human tissue plasminogen activator (tPA) is added, and the combination of the test compound, PAI-1 and tPA is incubated for an additional 30 minutes. Following the second incubation, Spectrozyme-tPA (American Diagnostica, Greenwich, Conn.), a chromogenic substrate for tPA, is added and absorbance read at 405 nm at 0 and 60 minutes. Relative PAI-1 inhibition is equal to the residual tPA activity in the presence of the test compound and PAI-1. Control treatments include the complete inhibition of tPA by PAI-1 at the molar ratio employed (2:1), and the absence of any effect of the test compound on tPA alone.

human PAI-1 = human PAI-1 (Homo sapiens, UniProt P05121); assay: Assay for determining IC50 of inhibition of PAI-1 (Antibody Assay); type: binding; conditions: active PAI-1 bound to tPA-coated plate
Experimental: This assay is based upon the non-SDS dissociable interaction between tPA and active PAI-1. Assay plates are initially coated with human tPA (10 μg/ml). Test compounds of the present invention are dissolved in DMSO at 10 mM, then diluted with physiologic buffer (pH 7.5) to a final concentration of 1-50 μM. Test compounds are incubated with human PAI-1 (50 ng/ml) for 15 minutes at room temperature. The tPA-coated plate is washed with a solution of 0.05% Tween 20 and 0.1% BSA, then the plate is blocked with a solution of 3% BSA. An aliquot of the thiazolo-naphthyl acid/PAI-1 solution is then added to the tPA-coated plate, incubated at room temperature for 1 hour, and washed. Active PAI-1 bound to the plate is assessed by adding an aliquot of a 1:1000 dilution of the 33B8 monoclonal antibody against human PAI-1, and incubating the plate at room temperature for 1 hour (Molecular Innovations, Royal Oak, Mich.). The plate is again washed, and a solution of goat anti-mouse IgG-alkaline phosphatase conjugate is added at a 1:50,000 dilution in goat serum. The plate is incubated 30 minutes at room temperature, washed, and a solution of alkaline phosphatase substrate is added. The plate is incubated 45 minutes at room temperature, and color development is determined at OD405 nm. The quantitation of active PAI-1 bound to tPA at varying concentrations of the test compound is used to determine the IC50. Results are analyzed using a logarithmic best-fit equation. The assay sensitivity is 5 ng/ml of human PAI-1 as determined from a standard curve ranging from 0-100 ng/ml.

T1 sequence (P05121 24-402): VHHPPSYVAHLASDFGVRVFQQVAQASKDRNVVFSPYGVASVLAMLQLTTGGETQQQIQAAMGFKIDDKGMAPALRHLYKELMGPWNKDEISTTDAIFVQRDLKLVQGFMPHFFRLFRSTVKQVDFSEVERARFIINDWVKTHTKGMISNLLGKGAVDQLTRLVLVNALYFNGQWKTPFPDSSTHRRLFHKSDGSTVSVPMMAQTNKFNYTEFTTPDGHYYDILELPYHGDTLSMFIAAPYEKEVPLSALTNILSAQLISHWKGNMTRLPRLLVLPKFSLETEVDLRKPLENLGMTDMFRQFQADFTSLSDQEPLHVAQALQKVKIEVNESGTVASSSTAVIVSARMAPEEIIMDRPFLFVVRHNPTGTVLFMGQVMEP
Chain of human PAI-1 (P05121 24-402): as above

| Structure (SMILES) | inhibition at 10 µM [1] [%] | inhibition at 25 µM [1] [%] | melting point [°C] | IC50 (human PAI-1) [µM] |
| --- | --- | --- | --- | --- |
| O=C(O)C(Cc1ccccc1)Oc1ccc2cc(-c3nc(-c4ccccc4)sc3Br)ccc2c1Br (stereo not drawn) [Example 7, 2-{[1-bromo-6-(5-bromo-2-phenyl-1,3-thiazol-4-yl)-2-naphthyl]oxy}-3-phenylpropanoic acid] | 20 | 71 | 221 to 223 |  |
| O=C(O)C(Cc1ccccc1)Oc1ccc2cc(-c3csc(-c4ccccc4)n3)ccc2c1 (stereo not drawn) [Example 1, 3-phenyl-2-{[6-(2-phenyl-1,3-thiazol-4-yl)-2-naphthyl]oxy}propanoic acid] | 4 | 62 | 154 to 160 | 26.2 |
| c1ccc(-c2nc(-c3ccc4cc(OCc5nnn[nH]5)ccc4c3)cs2)cc1 [Example 2, 5-({[6-(2-phenyl-1,3-thiazol-4-yl)-2-naphthyl]oxy}methyl)-1H-tetraazole] | 6 | 59 | 226 to 228 | 34.3 |
| O=C(O)c1ccc(COc2ccc3cc(-c4csc(-c5ccccc5)n4)ccc3c2Br)cc1 (hydrate or solvate) [Example 8, 4-({[1-bromo-6-(2-phenyl-1,3-thiazol-4-yl)-2-naphthyl]oxy}methyl)benzoic acid] |  |  | 268 to 270 |  |
| O=C(O)c1ccc(COc2ccc3cc(-c4csc(-c5ccccc5)n4)ccc3c2Br)cc1 [Example 8, 4-({[1-bromo-6-(2-phenyl-1,3-thiazol-4-yl)-2-naphthyl]oxy}methyl)benzoic acid] | 38 | 49 |  |  |
| Brc1c(OCc2nnn[nH]2)ccc2cc(-c3csc(-c4ccccc4)n3)ccc12 [Example 5, 5-({[1-bromo-6-(2-phenyl-1,3-thiazol-4-yl)-2-naphthyl]oxy}methyl)-1H-tetraazole] | 42 | 64 | 227 to 231 |  |
| O=C(O)COc1ccc2cc(-c3csc(-c4ccccc4)n3)ccc2c1Br [Example 4, {[1-bromo-6-(2-phenyl-1,3-thiazol-4-yl)-2-naphthyl]oxy}acetic acid] | 40 | 68 | 222 to 230 | 20.3 |
| O=C(O)C(Cc1ccccc1)Oc1ccc2cc(-c3csc(-c4ccccc4)n3)ccc2c1Br (stereo not drawn) [Example 3, 2-{[1-bromo-6-(2-phenyl-1,3-thiazol-4-yl)-2-naphthyl]oxy}-3-phenylpropanoic acid] | 1 | 49 | 220 to 224 |  |
| O=C(O)COc1ccc2cc(-c3csc(Cc4c(Cl)cccc4Cl)n3)ccc2c1 [Example 6, ({6-[2-(2,6-dichlorobenzyl)-1,3-thiazol-4-yl]-2-naphthyl}oxy)acetic acid] | 21 | 43 | 205 to 207 |  |
